Experimental data published in a melting point compilation (Tetko et al.; mined from patent text by program, amines drawn as free bases though some values may be those of a salt).

| SMILES | melting point [°C] |
| --- | --- |
| Nc1ccc(C2=NNC(=O)CC2)cc1[N+](=O)[O-] | > 330 |
| CC1(C)OC(=O)C(Oc2ccc(F)c(F)c2)=C1c1ccc(S(C)(=O)=O)cc1 | 93 to 95 |
| C=CCN1Cc2cnc(C)n2-c2ccc(Cl)cc2C1c1ccccc1F (stereo not given) | 140 to 145 |
| Cc1cc(-c2noc(CS(C)(=O)=O)n2)ccc1Br | 130 to 132 |
| CCCCc1ccc(CCCC(=O)O)cc1 | 56 to 58 |
| Nc1cc(Cl)c(F)cc1-c1cccc(Cl)c1 | 58 |
| O=C1Cc2c(Oc3ccccc3)ccc(Cl)c2N1 | 200 to 202 |
| CCCc1c(S)ccc2c(=O)c(C(=O)OC)coc12 | 98 to 99 |
| CC1C(=O)Nc2c(C(=O)c3ccc(Br)cc3)cccc21 (stereo not given) | 245 to 247 |
| COc1ccc(C2Cc3[nH]c4ccccc4c3C2)cc1 (stereo not given) | 106 to 109 |
| C[C@H](O)CN1CCN(c2ccc(Nc3ncc4ccc(-c5ccccc5N(C)S(C)(=O)=O)n4n3)cc2F)CC1 | 165 |
| CC(C)[C@H](NC(=O)[C@@H](C)c1ccc(Nc2nc(C(F)(F)F)cs2)cc1)C(=O)O | 99 to 101 |
| NC(=O)c1n[nH]c(S(=O)(=O)c2ccccc2)n1 | 150 to 153 |
| Cc1c(CNCC(C)(C)C)[nH]c2c(F)c(NC(=O)c3ccc(OC[C@@H]4CCCO4)cc3)ccc12 | 159 to 160 |
| Cc1cc(C(=N)NO)cc(C)c1OCCCc1ccco1 | 100 to 101 |
| CC(C)n1cc(-c2nc(C(N)=O)c(N)nc2-c2cccc(Cl)c2)ccc1=O | 233 |
| CC(C)NC(=O)CCC(=O)c1ccccc1 | 118 to 121 |
| CCCCOC(=O)c1ccc(N2CCN(CCCS(=O)(=O)O)CC2)cc1 | 232 to 234 |
| Cc1ccc(C(=O)OCCN(C)C)cc1-n1c(C)cc(OCc2ccccc2CNC(=O)Nc2cc(C(C)(C)C)nn2-c2cccc(OCCO)c2)c(Cl)c1=O | 164 to 165 |
| COC(=O)c1ccccc1S(=O)(=O)NC(=O)N1NC(=O)N(O)C1OC (stereo not given) | 180 |
| Nc1ccccc1C(=O)NCC1CCN(C(c2ccccc2)c2ccccc2)CC1 | 153 to 154 |
| FC(F)(F)c1cc(-c2cccs2)[nH]n1 | 121 |
| Fc1cccc(F)c1-c1cncnc1 | 67 to 69 |
| CCOc1cn(C)cc(-c2cccc(C(F)(F)F)c2)c1=S | 153 to 155 |
| Nc1ccc2c(c1)OCC(CN1CC=C(c3c[nH]c4ccc(F)cc34)CC1)O2 (stereo not given) | 172 to 174 |

| SMILES | melting point [°C] |
| --- | --- |
| COc1ccc(S(=O)(=O)C2(C(=O)NO)CCN(Cc3ccc(Cl)c(Cl)c3)CC2)cc1 | 192 to 195 |
| COc1ccc(OC(CCCN2C3CCC2CNC3)c2ccc(C#N)cc2)cc1OC (stereo not given) | 38 to 43 |
| COc1ccc(C2C[N+]([O-])=C3CCCCC32)cc1OC (stereo not given) | 135 to 141 |
| CCCc1c(OCCCCCCc2cccc(O)c2O)ccc(C(=O)O)c1OC(C)=O | 130 to 132 |
| COc1ccc(C(=O)Nc2ccccc2C(c2ccc(O)cc2)c2ccc(O)cc2)cc1 | 154 to 156 |
| CC(=S)OC1CCN(C(=O)OCc2ccc([N+](=O)[O-])cc2)CC1 | 106 to 107 |
| Cc1ccc2cc(NC(=O)c3cccc(CSc4cnccn4)c3)ccc2n1 | 133 to 135 |
| CCCN(CCC)Cc1csc(-c2ncn3c2CN(C)C(=O)c2cc(F)ccc2-3)n1 | 134 to 136 |
| COC(=O)c1cc(O)cnc1C1=NC(=O)C(C)(C(C)C)N1 (stereo not given) | 200 to 205 |
| CCOC(=O)C1=C(C)Nc2nc(N3CCOCC3)nc(N3CCOCC3)c2C1c1cccc2ccccc12 (stereo not given) | 198 |
| CCc1nccn1-c1ccc(NC(=O)c2ccc(Cl)cc2)cc1 | 265 to 267 |
| COc1ccc(CC(Cc2ccccc2)C(=O)O)cc1 (stereo not given) | 72 to 76.5 |
| Cn1cc(C(=O)O)c(=O)c2cc(Cl)c(N3CCOCC3)cc21 | 334 |
| OC1Cc2ccc(F)cc2Sc2ccc(I)cc21 (stereo not given) | 162 |
| CC1(C)OCCC(NC(=O)c2cnccc2C(F)(F)F)O1 (stereo not given) | 155 to 156 |
| CO[C@@H]1[C@H](O)[C@@H](CO)O[C@H]1n1cnc2c(N[C@H](C)Cc3sccc3Cl)ncnc21 | 75 to 76 |
| Cc1cccc(N2CCN(Cc3n[nH]c4ccccc34)CC2)c1 | 132 to 134 |
| Cc1oncc1CN1C(=O)C2(COc3cc4c(cc32)OCO4)c2ccccc21 (stereo not given) | 159 to 161 |
| Cn1c(COc2ccc(CC3SC(=O)NC3=O)cc2)nc2ccc(Oc3ccc(NC(=O)c4ccccc4)cc3)cc21 (stereo not given) | 200 to 204 |
| CCn1cc(C2(c3cccc(-c4cccnc4F)c3)N=C(N)N(C)C2=O)cc1C=O (stereo not given) | 152 to 156 |
| CC(=O)NCc1nc(-c2csc(N=C(N)N)n2)cs1 | 255 to 256 |
| Cc1cccc(C)c1NC(=O)Nc1ccc(CC(=O)NC(CC(C)C)c2ncc(CCC(=O)O)s2)cc1 (stereo not given) | 125 to 127 |
| CC(C)(C)[Si](C)(C)Oc1ccc(C(=O)Oc2ccc(C(=O)O)cn2)cc1C12CC3CC(CC(C3)C1)C2 | 188 to 190 |
| CC1CCc2cccc3c2N1C(=O)C3=O (stereo not given) | 241 to 243 |
| COc1cc(C(O)(C(F)(F)F)C(F)(F)F)cc(Br)c1N(S(C)(=O)=O)S(C)(=O)=O | 193 |

| SMILES | melting point [°C] |
| --- | --- |
| CCS1(N2CCN(c3ccccc3OC)CC2)C(C)=C(C)c2c1[nH]c(=O)[nH]c2=O (stereo not given) | 196 to 197 |
| CN1C(=O)C(=C2CCN(Cc3ccccc3)CC2)c2ccccc21 | 101 to 102 |
| Cc1cccc(OC(=O)c2ccccc2)c1 | 51 to 54 |
| Cc1cccc(NS(=O)(=O)c2ccc(N3CCNC3=O)cc2)c1 | 188 to 190 |
| CC(C)(C)OC(=O)N(C(=N)N)C(=O)OC(C)(C)C | 144 to 145 |
| OC(COCCCl)c1ccc2cc(OCc3ccccc3)ccc2c1 (stereo not given) | 86 to 87.5 |
| CCCCC(OC(C)=O)c1cccc(COc2cc([N+](=O)[O-])cc3cccnc23)c1 (stereo not given) | 72 to 74 |
| COc1ccc(O[C@@H]2CCNC[C@H]2O)cc1 (relative stereo) | 171 to 173 |
| CNC(=O)Oc1ccc(CN2CCN(c3ccc(C(C)=O)cc3)CC2)cc1OC | 120 to 123 |
| CCCCC1=C(C#N)N(O)CS1 | 118 to 120 |
| CS(=O)(=O)c1ccc(C2=C(c3cccc(F)c3F)CCC2)cc1 | 151 to 152 |
| CC1C(=O)NC(=O)NC1=O | 200 to 215 |
| CC(=O)N1CCCC(=O)c2cc(Cl)c(Cl)cc2CCC1=O | 163 to 165 |
| Clc1nc(C(Cl)Cl)c(Cl)s1 | 42 to 44 |
| CCCc1ccccc1OCCCOc1ccc2c(=O)cc(-c3nnn[nH]3)oc2c1 | 191 to 193 |
| Cc1nc2ccnn2c2c1CCN2Cc1ccccc1 | 130 |
| CCc1c(-c2ccc(O)cc2)c2cc(COCCCN(C)C)c3cccc1n32 | 146 to 147 |
| O=C(O)CCc1cc2nc(C(F)(F)F)ccc2n1S(=O)(=O)c1cccc2ccccc12 | 116 to 117 |
| O=C(O)/C=C/c1ccc2c(/C=C/C(=O)O)c[nH]c2c1 | > 360 |
| N#Cc1cc(C(=O)c2ccccc2)ccc1[N+](=O)[O-] | 117 to 119 |
| Cc1oc2c(NC(=O)c3c(Cl)ccc(CO)c3Cl)cccc2c1C | 258 to 261 |
| CCc1cn(C2CC(O)(c3ccc(C)cc3)C(C(O)c3ccc(C)cc3)O2)c(=O)[nH]c1=O (stereo not given) | 192 to 194 |
| CC(=O)C1C(Cl)CC2C3CCC4CC(O)C(Cl)CC4(C)C3C(=O)CC21C (stereo not given) | 192 to 194 |
| COc1nc(Cl)cc2nc(S(=O)(=O)Nc3ccn(C)n3)nn12 | 185 to 187 |
| COC(=O)C1C(C)CC2C3CCC4CC(O)CCC4(C)C3C(=O)CC21C (stereo not given) | 173 to 174 |

| SMILES | melting point [°C] |
| --- | --- |
| OCC1OC(n2cnc3c(NCc4cccc(I)c4)ncnc32)C(O)C1O (stereo not given) | 172 |
| O=C(NCc1ccc(Cl)cc1)c1coc2ccc(C#CCO)cc2c1=O | 182 to 183 |
| CCOc1nc2ccccc2nc1N(C)C(=O)N1CCN(c2cc(OC)cc(OC)c2)CC1 | 159 to 161 |
| NC(CF)C(=O)c1ccccc1 (stereo not given) | 40 to 42 |
| COc1ccc(-c2oc(C(=O)O)cc(=O)c2O)cc1 | 258 to 260 |
| O=Cc1cc(I)ccc1O | 99 to 101 |
| CC(O)Cn1cnc2c1c(=O)n(CC1CCCC1)c(=O)n2CC1CCCC1 (stereo not given) | 139 |
| Cc1cc(C)n(C)c1C(=O)c1ccc(Cl)cc1Cl | 96 to 98 |
| CC1=NC=CC(C)(c2c(F)cc3c(=O)c(C(=O)O)cn4c3c2OCC4C)C1 (stereo not given) | 308 to 312 |
| O=C1CCN(Cc2cc([N+](=O)[O-])ccc2O)CC1C(c1ccc(F)cc1)c1ccc(F)cc1 (stereo not given) | 169 to 170 |
| Cn1ccnc1-c1ccccc1Nc1nc(Nc2ccc3c(c2)C(C)(C)CCC(=O)N3)ncc1Cl | 227 |
| O=[N+]([O-])C(c1ccccc1)(c1ccccc1)[N+](=O)[O-] | 158 |
| Cc1c(F)cccc1Cc1c(-c2ccccc2)c2ccccn2c1C(=O)N1CCN[C@@H](CC(=O)NCC2CCOCC2)C1 | 147 |
| CN1CC(CN)Oc2c(-c3cccc(Cl)c3)cccc21 (stereo not given) | 134 |
| CC(C)=CCn1c(=O)sc2c(=O)[nH]c(N)nc21 | 290 to 292 |
| COC(=O)C(c1ccc(Cl)cc1)c1c2ccccc2nc2ccccc12 (stereo not given) | 192 to 193 |
| C[C@@H](Cn1ncc2ccc3c(c21)C[C@@H](OCC(=O)OC(C)(C)C)CO3)N=[N+]=[N-] | 77 to 78 |
| CCOC(=O)c1cnc(Nc2ccc(-n3cnc(C)c3)c(OC)c2)nc1-c1ccc(Cl)cc1 | 216 to 218 |
| CC(C)(C)CC(=O)Nc1ccc2ncnc(N)c2c1 | 273 to 274 |
| CC1(C)OC(=O)C(Oc2ccccc2)=C1c1ccc(S(C)(=O)=O)cc1 | 135 to 136 |
| O=C1Cc2cccc(Nc3ccc(Cl)cc3)c2N1 | 190 to 192 |
| Cn1nnnc1SCCCC(=O)c1ccccc1 | 57.5 to 58 |
| O=S(CCCc1nc(-c2ccc(F)cc2)c(-c2ccncc2)[nH]1)c1ccccc1 (stereo not given) | 146 to 148 |
| COc1ccc(Cn2nccc2-c2nn(-c3cccc(C(F)(F)F)c3)ccc2=O)cc1 | 159 to 161 |
| COc1ccc2c(c1)NC(=O)C(N=[N+]=[N-])CC2 (stereo not given) | 136 to 138 |
